Drawing on patent US9828588B2, “Methods and compositions for producing active vitamin K-dependent proteins” (The University of North Carolina at Chapel Hill, priority 2005, dated 2017), this text covers average warfarin dose for one molecule.

The experiment deals with P450 2C9. Nature of the experiment: Average warfarin maintenance dose in patients by P450 2C9 genotype. The following applies: patients heterozygous for P450 2C9*3, n=8. It counts as in vivo, human. The text has this:
Subjects were obtained from the UNC Coagulation Clinic in the Ambulatory Care Center. Informed consent was obtained by a trained genetic counselor. Subjects not fluent in English were excluded because of the lack of translators and the requirement for consent.
The difference of average dose between different genotypes was compared by analysis of variance (ANOVA) using SAS version 8.0 (SAS, Inc., Cary, N.C.). A two-sided p value less than 0.05 was considered significant.
Each marker was first analyzed independently.
SAS was used first to do a repeated procedure in which a series of factors (race, gender, smoking history, hepatic diseases, SNPs at cytochrome […] gene, etc.) were examined to identify factors, excluding VKOR SNPs, which might affect dosage.

Turning to `CC(=O)CC(c1ccccc1)c1c(O)c2ccccc2oc1=O` (stereo not shown) [warfarin], the average warfarin dose is on record as 22.4±4.34 mg per week.
